PubChem BioAssay (NCI)
Several values for one entry are separate records, joined by “and”; a condition that tells them apart may be missing. Identical values can stand only once.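 Five concentrations, 48 hours, 96-well plates. GI50 = concentration required for 50% inhibition of growth. TGI is the concentration that stops growth completely.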 Where a SMILES comes first, the peptide text is derived from it. [ ]: non-standard residue; d: D form. The star is where a group is joined. Bn2Val = CC(C)[C@@H](C(=O)*)N(Cc1ccccc1)Cc1ccccc1; NH(4-Cl-benzyl) = Clc1ccc(CN*)cc1; NMeV = CN[C@H](C(=O)O)C(C)C; dNMeA = CN[C@H](C)C(=O)O

Legend:
Assay in all cases: growth of human tumour cells (NCI), 48 h
[1] = tested on: UACC-62 melanoma
[2] = tested on: SN12C renal
[3] = tested on: OVCAR-3 ovarian
[4] = tested on: SK-MEL-5 melanoma
[5] = tested on: NCI-H226 lung
[6] = tested on: SF-295 CNS
[7] = tested on: OVCAR-4 ovarian
[8] = tested on: HOP-92 NSCLC
[9] = tested on: SR leukemia
[10] = tested on: DU-145 prostate

Compound | TGI [1] | TGI [2] | TGI [3] | TGI [4] | TGI [5] | TGI [6] | TGI [7] | TGI [8] | TGI [9] [µM] | TGI [10] [µM] | GI50 [2] [µM] | GI50 [3] [µM] | GI50 [4] [µM] | GI50 [5] [µM] | GI50 [6] [µM] | GI50 [8] [µM] | GI50 [1] [µM] | GI50 [7] [µM] | GI50 [9] [µM] | GI50 [10] [µM]
CC(=O)NC1C(OCc2ccccc2)OC(CO)C(O)C1OC(C)C(=O)NC(C(=O)NC(CCC(=O)NCCCCNc1c2ccccc2nc2cccc([N+](=O)[O-])c12)C(N)=O)C(C)C (stereo unspecified) | 5.03 µM | 9.53 µM | 6.14 µM | 7.39 µM | 12.3 µM | 43.1 µM | 3.97 µM | 4.52 µM | 2.61 | 19.6 |  |  |  |  |  |  |  |  |  | 
O=c1[nH]n(Cc2ccccc2)c2ccc([N+](=O)[O-])cc12 | > 100 µM | > 100 µM | > 100 µM | > 100 µM | > 100 µM | > 100 µM | > 100 µM | > 100 µM | > 100 | > 100 |  |  |  |  |  |  |  |  |  | 
CC(Oc1ccccc1Cl)C(=O)NN1C(=O)CSC1c1ccccc1 (stereo unspecified) | > 100 µM | > 100 µM | > 100 µM | > 100 µM | > 100 µM | > 100 µM | > 100 µM | > 100 µM | > 100 | > 100 |  |  |  |  |  |  |  |  |  | 
CC(C)[C@H](NC(=O)[C@H](C(C)C)N(Cc1ccccc1)Cc1ccccc1)C(=O)N(C)[C@H](C(=O)N1CCC[C@H]1C(=O)N(C)[C@H](C)C(=O)NCc1ccc(Cl)cc1)C(C)C (Bn2Val-V[NMeV]P[dNMeA]-{NH(4-Cl-benzyl)}) | 13.8 µM | 6.35 µM | 9.67 µM | 13.4 µM | 9.66 µM | 11.1 µM | > 100 µM | 17.9 µM | > 100 | > 100 |  |  |  |  |  |  |  |  |  | 
Cc1cc(C)c2c(c1)C(=O)/C(=C/c1ccccc1C(=O)O)C2 | > 100 µM | > 100 µM | > 100 µM | > 100 µM | > 100 µM | > 100 µM | > 100 µM | > 100 µM | > 100 | > 100 |  |  |  |  |  |  |  |  |  | 
CC1=C2C(=CO[C@H](C)[C@H]2C)C(=O)C(C(=O)O)=C1O | 85.6 µM and 40.4 µM | 54.8 µM and 26.2 µM | 43.2 µM and 47 µM | 35.7 µM and 45.4 µM | 59.9 µM and 47.4 µM | 97.1 µM and 61.3 µM | > 80.5 µM and 87.5 µM | 72.6 µM and 46.3 µM | 66.7 | 68.3 | 9.07 | 20.2 | 20.4 | 18.4 | 24.7 | 16.1 |  |  |  | 
CC(C)(C)[Si](C)(C)OCc1cccc(OCCOc2cccc(CO[Si](C)(C)C(C)(C)C)c2[N+](=O)[O-])c1[N+](=O)[O-] | > 100 µM | > 100 µM | > 100 µM | > 100 µM | > 100 µM | > 100 µM | > 100 µM | > 100 µM | > 100 | > 100 |  |  |  |  |  |  |  |  |  | 
COc1ccc2[nH]c(O)c(/C=c3/cc4c(c(-c5ccc(F)c(OC)c5)n3)=Nc3ccccc3-4)c2c1 | 3.16 µM | 30.5 µM | 3.58 µM | 22 µM | 33.1 µM | 6.51 µM | 16.3 µM | 6.62 µM | 6.96 | 32.6 | 12.9 | 1.99 | 3.07 | 16.4 | 2.26 | 1.5 | 1.7 | 3.53 | 1.86 | 4.11
O=[N+]([O-])c1cccc(N=Nc2c(O)c(S(=O)(=O)O)cc3cc(S(=O)(=O)O)ccc23)c1 | > 100 µM | > 100 µM | > 100 µM | > 100 µM | > 100 µM | > 100 µM | > 100 µM | > 100 µM | > 100 | > 100 |  |  |  |  |  |  |  |  |  | 
NN=C(CC(O)(C(F)(F)Cl)C(F)(F)Cl)CC(O)(C(F)(F)Cl)C(F)(F)Cl | > 10 µM | > 10 µM | > 10 µM | > 10 µM | > 10 µM | > 10 µM | > 10 µM | > 10 µM | > 10 | > 10 |  |  |  |  |  |  |  |  |  | 
Cc1ccc(S(=O)CC(CF)OCn2cc(C)c(=O)[nH]c2=O)cc1 (stereo unspecified) | > 100 µM | > 100 µM | > 100 µM | > 100 µM | > 100 µM | > 100 µM | > 100 µM | > 100 µM | > 100 | > 100 |  |  |  |  |  |  |  |  |  | 
O=C(N/N=C/C=C/c1ccccc1)c1ccccc1Nc1ccccc1C(=O)N/N=C/C=C/c1ccccc1 | > 100 µM | > 100 µM | > 100 µM | > 100 µM | > 100 µM | > 100 µM | > 100 µM | > 100 µM | > 100 | > 100 |  |  |  |  |  |  |  |  |  | 
COc1cc(C2C3=C(COC3=O)Oc3cc4c(cc32)OCO4)cc(OC)c1O (stereo unspecified) | 2.69 µM | 23.2 µM | 19.8 µM | < 0.0187 µM | 0.215 µM | 15.4 µM | 47.8 µM | 5.55 µM | > 100 | 0.391 |  |  |  |  |  |  |  |  |  | 
